As a reminder, the IC50 is the concentration needed to halve the response being measured.

Molecules are shown by their SMILES.

The text below walks through data of patent US12612424B2, “HPK1 inhibitors and uses thereof” (Regor Pharmaceuticals, Inc., priority 2019, dated 2026).

The target in one assay is HPK1 (Homo sapiens, UniProt Q92918). Nature of the assay: HPK1 biochemical assay (ADP-GLO Kinase Assay). The following applies: B*: testing performed in a first testing facility; read-out: HPK1 IC50 (nM) Relative, B*. An outline of the steps: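 HPK1 (0.6 ng/μL final) activity was followed with MBP substrate and 10 μM ATP in Tris pH 7.5/MgCl2/BSA/DTT buffer, measured by ADP-Glo luminescence. Compounds were tested as 3-fold dilutions from 10 μM. IC50 came from a three-parameter logistic fit, with inhibition normalised to high/low controls.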
HPK1, sequence (Q92918 whole entry): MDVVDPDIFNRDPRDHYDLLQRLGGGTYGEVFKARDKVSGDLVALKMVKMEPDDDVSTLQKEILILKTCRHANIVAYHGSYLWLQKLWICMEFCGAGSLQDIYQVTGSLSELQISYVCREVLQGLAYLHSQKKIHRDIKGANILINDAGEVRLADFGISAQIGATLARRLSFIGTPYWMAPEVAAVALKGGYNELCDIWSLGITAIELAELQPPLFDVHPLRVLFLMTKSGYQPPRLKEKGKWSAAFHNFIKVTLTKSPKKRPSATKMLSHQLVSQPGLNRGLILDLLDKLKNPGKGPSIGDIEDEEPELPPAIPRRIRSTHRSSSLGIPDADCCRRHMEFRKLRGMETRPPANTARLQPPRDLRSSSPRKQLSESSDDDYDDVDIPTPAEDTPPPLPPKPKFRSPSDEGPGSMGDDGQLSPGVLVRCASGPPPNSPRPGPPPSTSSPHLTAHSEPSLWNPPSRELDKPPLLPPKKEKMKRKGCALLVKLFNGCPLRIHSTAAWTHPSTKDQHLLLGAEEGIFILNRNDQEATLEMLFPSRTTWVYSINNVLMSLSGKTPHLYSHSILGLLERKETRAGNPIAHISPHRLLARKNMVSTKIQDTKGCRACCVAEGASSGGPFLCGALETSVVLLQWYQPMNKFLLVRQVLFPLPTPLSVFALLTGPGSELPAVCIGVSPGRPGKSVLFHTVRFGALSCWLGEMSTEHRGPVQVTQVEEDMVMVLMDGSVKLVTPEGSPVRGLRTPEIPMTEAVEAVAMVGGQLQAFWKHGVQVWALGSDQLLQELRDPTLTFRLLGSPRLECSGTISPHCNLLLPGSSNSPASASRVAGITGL
(In general: In ADP-Glo the light output rises with the ADP produced.)

The next assay addresses T1, JAK3 (Homo sapiens, UniProt P52333).
T1 construct: purchased Thermo fisher PV3855
The assay is described as follows: JAK3 biochemical assay (ADP-GLO Kinase Assay). The conditions noted are these: for IC50: B*: testing performed in a first testing facility, read-out: JAK3 IC50 (nM) Relative, B*; for JAKs/HPK1 IC50 Ratio, B*: ratio of JAK3 IC50 to HPK1 IC50, first testing facility. An outline of the steps:
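Human JAK3 (0.78 ng) with 0.2 μg/μL Poly(E4Y1) and 4 μM ATP in 40 mM Tris pH 7.5, 20 mM MgCl2, 0.1 mg/ml BSA, 50 μM DTT, 1% DMSO; 60 min at 25 °C. ADP formed read by ADP-Glo luminescence. 10-dose 3-fold series from 10 μM; IC50 by three-parameter logistic fit.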

T1 sequence (P52333 781-1124 limits assumed): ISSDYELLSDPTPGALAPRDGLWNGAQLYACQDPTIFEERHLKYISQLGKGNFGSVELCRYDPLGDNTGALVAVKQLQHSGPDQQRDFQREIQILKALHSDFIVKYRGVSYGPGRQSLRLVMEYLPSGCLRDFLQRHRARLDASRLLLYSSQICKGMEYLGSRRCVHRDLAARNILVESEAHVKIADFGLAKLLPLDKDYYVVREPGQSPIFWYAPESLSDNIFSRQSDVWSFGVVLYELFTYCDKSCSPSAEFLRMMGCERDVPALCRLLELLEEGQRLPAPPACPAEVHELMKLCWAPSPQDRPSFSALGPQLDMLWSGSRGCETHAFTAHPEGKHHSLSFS

On to `CCc1c[nH]c2ncc(-c3ccc(N)c(P(C)(C)=O)n3)cc12` [Example 75, (3-Amino-6-(3-ethyl-1H-pyrrolo[2,3-b]pyridin-5-yl)pyridin-2-yl)dimethylphosphine oxide], for which the IC50 is at most 100 nM at HPK1 and over 1000 nM on JAK3. Moreover, the “JAKs/HPK1 IC50 Ratio, B*” value on JAK3 is on record as 59.

Take `CCc1c[nH]c2ncc(-c3ccc(NC4COC4)c(P(C)(C)=O)c3)cc12` [Example 76, (5-(3-Ethyl-1H-pyrrolo[2,3-b]pyridin-5-yl)-2-(oxetan-3-ylamino)phenyl)dimethylphosphine oxide]: the concentration for half-maximal inhibition (IC50) at HPK1 is 500 to 1000 nM. In addition, at JAK3, the half-inhibitory concentration (IC50) was over 1000 nM and the “JAKs/HPK1 IC50 Ratio, B*” value is given as 4.

With `CC(C)c1c[nH]c2ncc(-c3ccc(N)c(P(C)(C)=O)c3)cc12` [Example 77, (2-Amino-5-(3-isopropyl-1H-pyrrolo[2,3-b]pyridin-5-yl)phenyl)dimethylphosphine oxide], at HPK1, the half-inhibitory concentration (IC50) is at most 100 nM. Besides, at JAK3, the IC50 is over 1000 nM and the “JAKs/HPK1 IC50 Ratio, B*” value stood at 76.

Take `CCc1c[nH]c2ncc(-c3ccc(C(F)(F)F)c(P(C)(C)=O)c3)cc12` [Example 78, (5-(3-Ethyl-1H-pyrrolo[2,3-b]pyridin-5-yl)-2-(trifluoromethyl)phenyl)dimethylphosphine oxide]: the values for the concentration for half-maximal inhibition (IC50) on HPK1 and on JAK3 were 500 to 1000 nM and over 1000 nM, respectively. Besides, on JAK3, the “JAKs/HPK1 IC50 Ratio, B*” value is over 15.

As to `COc1cc2c(cc1Nc1ncc(Cl)c(-n3cc(S(C)(=O)=O)c4ccccc43)n1)CN(C)CC2` [Example 80, N-(5-chloro-4-(3-(methylsulfonyl)-1H-indol-1-yl)pyrimidin-2-yl)-6-methoxy-2-methyl-1,2,3,4-tetrahydroisoquinolin-7-amine], the half-maximal inhibitory concentration (IC50) at HPK1 is at most 100 nM. On JAK3, the IC50 was over 1000 nM and the “JAKs/HPK1 IC50 Ratio, B*” value was over 1172.

On to `COc1cc2c(cc1Nc1ncc(Cl)c(-n3cc(CS(C)(=O)=O)c4ccccc43)n1)CN(C)CC2` [Example 82, N-(5-chloro-4-(3-((methylsulfonyl)methyl)-1H-indol-1-yl)pyrimidin-2-yl)-6-methoxy-2-methyl-1,2,3,4-tetrahydroisoquinolin-7-amine], for which the IC50 at HPK1 is at most 100 nM. For the same molecule, on JAK3, the IC50 was over 1000 nM and the “JAKs/HPK1 IC50 Ratio, B*” value is on record as 800.

In the case of `COc1cc2c(cc1Nc1ncc(Cl)c(N3CCc4cc(Br)ccc43)n1)CN(C)CC2` [Example 85, N-(4-(5-bromoindolin-1-yl)-5-chloropyrimidin-2-yl)-6-methoxy-2-methyl-1,2,3,4-tetrahydroisoquinolin-7-amine], the 50% inhibitory concentration (IC50) on HPK1 was at most 100 nM. In addition, on JAK3, the IC50 is over 1000 nM and the “JAKs/HPK1 IC50 Ratio, B*” value is 178.

Turning to `COc1cc2c(cc1Nc1ncc(Cl)c(N3CCc4c(OC)cccc43)n1)CN(C)CC2` [Example 89, N-(5-chloro-4-(4-methoxyindolin-1-yl)pyrimidin-2-yl)-6-methoxy-2-methyl-1,2,3,4-tetrahydroisoquinolin-7-amine], the IC50 at HPK1 was at most 100 nM. For the same molecule, on JAK3, the IC50 is over 1000 nM and the “JAKs/HPK1 IC50 Ratio, B*” value came to 944.

As for `COc1cc2c(cc1Nc1ncc(Cl)c(-n3cc(NS(C)(=O)=O)c4ccccc43)n1)CN(C)CC2` [Example 94, N-(1-(5-chloro-2-((6-methoxy-2-methyl-1,2,3,4-tetrahydroisoquinolin-7-yl)amino)pyrimidin-4-yl)-1H-indol-3-yl)methanesulfonamide], the IC50 is at most 100 nM at HPK1 and over 1000 nM at JAK3. Moreover, the “JAKs/HPK1 IC50 Ratio, B*” value on JAK3 came out at 449.

For `COc1ccc2c(c1)C(C(=O)O)CN2c1nc(Nc2cc3c(cc2OC)CCN(C)C3)ncc1Cl` (centres unmarked) [Example 106, 1-(5-Chloro-2-((6-methoxy-2-methyl-1,2,3,4-tetrahydroisoquinolin-7-yl)amino)pyrimidin-4-yl)-5-methoxyindoline-3-carboxylic acid], the concentration for half-maximal inhibition (IC50) on HPK1 and on JAK3 was at most 100 nM each time. For the same molecule, at JAK3, the “JAKs/HPK1 IC50 Ratio, B*” value was 11.

For `CC(C)Oc1cc2c(cc1Nc1ncc(Cl)c(N3CC(C(=O)O)c4ccccc43)n1)CN(C)CC2` (centres unmarked) [Example 111, 1-(5-Chloro-2-((6-isopropoxy-2-methyl-1,2,3,4-tetrahydroisoquinolin-7-yl)amino)pyrimidin-4-yl)indoline-3-carboxylic acid], the IC50 on HPK1 was at most 100 nM. At JAK3, the IC50 was over 1000 nM and the “JAKs/HPK1 IC50 Ratio, B*” value was over 236.

Consider `COC(=O)c1cn(-c2nc(Nc3cc4c(cc3OC)CCN(C)C4)ncc2Cl)c2ccccc12` [Example 114], for which, on HPK1, the half-inhibitory concentration (IC50) is at most 100 nM. For the same molecule, at JAK3, the half-maximal inhibitory concentration (IC50) was over 1000 nM and the “JAKs/HPK1 IC50 Ratio, B*” value is over 118.

Take `COc1cc2c(cc1Nc1ncc(Cl)c(N3CC(C)(C(=O)O)c4ccccc43)n1)CN(C)CC2` (centres unmarked) [Example 117]: the IC50 at HPK1 is at most 100 nM. On JAK3, the half-maximal inhibitory concentration (IC50) was at most 100 nM and the “JAKs/HPK1 IC50 Ratio, B*” value stood at 5.

`COc1cc2c(cc1Nc1ncc(Cl)c(N3CC(CO)(C(=O)O)c4ccccc43)n1)CN(C)CC2` (centres unmarked) [Example 124]: the half-maximal inhibitory concentration (IC50) at HPK1 and on JAK3 was at most 100 nM each time. In addition, the “JAKs/HPK1 IC50 Ratio, B*” value on JAK3 came to 20.

On to `COc1cc2c(cc1Nc1ncc(Cl)c(N3CC(C)(C(=O)O)c4ccccc43)n1)CNCC2` (centres unmarked) [Example 127, 1-(5-Chloro-2-((6-methoxy-1,2,3,4-tetrahydroisoquinolin-7-yl)amino)pyrimidin-4-yl)-3-methylindoline-3-carboxylic acid], for which the half-maximal inhibitory concentration (IC50) on HPK1 and on JAK3 was at most 100 nM in each case. Besides, the “JAKs/HPK1 IC50 Ratio, B*” value at JAK3 is on record as 4.

Consider `CCC(CC)COC(=O)Cc1cn(-c2nc(Nc3cc4c(cc3OC)CCN(C)C4)ncc2Cl)c2ccccc12` [Example 131, 2-Ethylbutyl 2-(1-(5-chloro-2-((6-methoxy-2-methyl-1,2,3,4-tetrahydroisoquinolin-7-yl)amino)pyrimidin-4-yl)-1H-indol-3-yl)acetate], for which the IC50 on HPK1 is 100 to 500 nM. Besides, on JAK3, the half-maximal inhibitory concentration (IC50) was over 1000 nM and the “JAKs/HPK1 IC50 Ratio, B*” value was over 82.

As to `CCOC(=O)Cc1cn(-c2nc(Nc3cc4c(cc3OC)CCN(C)C4)ncc2Cl)c2ccccc12` [Example 132], the IC50 on HPK1 is at most 100 nM; at JAK3 it was over 1000 nM. For the same molecule, at JAK3, the “JAKs/HPK1 IC50 Ratio, B*” value was over 426.

Take `COc1cc2c(cc1Nc1ncc(Cl)c(-n3cc(C4(C(=O)O)CC4)c4ccccc43)n1)CN(C)CC2` [Example 143]: on HPK1, the half-inhibitory concentration (IC50) is at most 100 nM. Moreover, at JAK3, the 50% inhibitory concentration (IC50) is over 1000 nM and the “JAKs/HPK1 IC50 Ratio, B*” value was found to be 433.

`COc1cc2c(cc1Nc1ncc(Cl)c(-n3cc(C(C(=O)O)C(F)(F)F)c4ccccc43)n1)CN(C)CC2` (centres unmarked) [Example 144]: on HPK1, the half-inhibitory concentration (IC50) was at most 100 nM. Moreover, at JAK3, the IC50 is over 1000 nM and the “JAKs/HPK1 IC50 Ratio, B*” value came out at 250.

For `COc1nc2c(cc1Nc1ncc(Cl)c(N3CC(C)(CC(=O)O)c4ccccc43)n1)CN(C)CC2` (centres unmarked) [Example 155], the IC50 on HPK1 was at most 100 nM. In addition, on JAK3, the concentration for half-maximal inhibition (IC50) is over 1000 nM and the “JAKs/HPK1 IC50 Ratio, B*” value is reported as over 111.

Take `COc1cc2c(cc1Nc1ncc3cc(C(=O)O)n(-c4ccccc4)c3n1)CN(C)CC2` [Example 165, 2-((6-Methoxy-2-methyl-1,2,3,4-tetrahydroisoquinolin-7-yl)amino)-7-phenyl-7H-pyrrolo[2,3-d]pyrimidine-6-carboxylic acid]: the IC50 on HPK1 is at most 100 nM. Moreover, at JAK3, the IC50 is over 1000 nM and the “JAKs/HPK1 IC50 Ratio, B*” value is 421.

For `COc1cc2c(cc1Nc1ncc3c(n1)n(-c1ccccc1)c(=O)n3C)CN(C)CC2` [Example 166, 2-((6-Methoxy-2-methyl-1,2,3,4-tetrahydroisoquinolin-7-yl)amino)-7-methyl-9-phenyl-7,9-dihydro-8H-purin-8-one], the IC50 was 100 to 500 nM at HPK1 and over 1000 nM on JAK3.

In the case of `COc1cc2c(cc1Nc1ncc(Cl)c(N3CC(C(=O)O)C4(CCOCC4)C3)n1)CN(C)CC2` (centres unmarked) [Example 168], on HPK1, the IC50 is at most 100 nM. Also, on JAK3, the concentration for half-maximal inhibition (IC50) was over 1000 nM and the “JAKs/HPK1 IC50 Ratio, B*” value is listed as 737.

Regarding `COc1cc2c(cc1Nc1ncc(Cl)c(N3CCC4(COC4)C3)n1)CN(C)CC2` [Example 170, N-(5-chloro-4-(2-oxa-6-azaspiro[3.4]octan-6-yl)pyrimidin-2-yl)-6-methoxy-2-methyl-1,2,3,4-tetrahydroisoquinolin-7-amine], at HPK1, the IC50 was 100 to 500 nM. Further, at JAK3, the concentration for half-maximal inhibition (IC50) was over 1000 nM and the “JAKs/HPK1 IC50 Ratio, B*” value amounted to 77.

In the case of `COc1cc2c(cc1Nc1ncc3ccc(=O)n(-c4ccccc4)c3n1)CN(C)CC2` [Example 171, 2-((6-Methoxy-2-methyl-1,2,3,4-tetrahydroisoquinolin-7-yl)amino)-8-phenylpyrido[2,3-d]pyrimidin-7(8H)-one], the IC50 at HPK1 was at most 100 nM; at JAK3, over 1000 nM. Also, on JAK3, the “JAKs/HPK1 IC50 Ratio, B*” value was 121.
